{"source": "patent US10363249B2", "about": "“Fatty acid synthase inhibitor for use in the treatment of drug resistant cancer” (3-V Biosciences, Inc., priority 2014, dated 2019)", "key": {"[1]": {"system": "BxPC3 AbR (paclitaxel resistant) cells", "assay": "Nab-paclitaxel dose response with fixed FASN inhibitor, CellTiter-Glo viability, BxPC3 AbR", "details": "for 3-Day IC50 Ratio + Compound 5 / 7-Day IC50 Ratio + Compound 5: BxPC3 AbR", "experimental": "(§1) For drug treatment, MIA PaCa-2 or BxPC-3 cells were plated in %-well plates in RPMI medium plus 10% FBS. Parental (paclitaxel sensitive) or AbR (paclitaxel resistant) variants of the MIA PaCa-2 or BxPC-3 cell lines were used. […] Serial dilutions of Nab-paclitaxel were prepared in DMSO and further diluted 1:10 in RPMI medium for addition to the assay solution. RPMI-diluted compounds were added to each well 24-hours after cell plating. Assays were done in triplicate for each drug concentration, with cell viability measured at 3 or 7 days after compound addition. The number of viable cells was measured using the CellTiter-Glo assay (Promega) according to the manufactures instructions. Luminosity per well was determined and the signal intensity was analyzed versus drug concentration. For each FASN inhibitor, the concentration of drug resulting in 50% inhibition of the maximum signal was determined, and this value was reported as the IC50."}, "[2]": {"system": "BxPC3 Parental (paclitaxel sensitive) cells", "assay": "Nab-paclitaxel dose response with fixed FASN inhibitor, CellTiter-Glo viability, BxPC3 Parental", "experimental": "as §1"}, "[3]": {"system": "MIA PaCa-2 AbR (paclitaxel resistant) cells", "assay": "Nab-paclitaxel dose response with fixed FASN inhibitor, CellTiter-Glo viability, MIA PaCa-2 AbR", "details": "for 3-Day IC50 Ratio + Compound 5 / 7-Day IC50 Ratio + Compound 5: MIA PaCa-2 AbR", "experimental": "as §1"}, "[4]": {"system": "MIA PaCa-2 Parental (paclitaxel sensitive) cells", "assay": "Nab-paclitaxel dose response with fixed FASN inhibitor, CellTiter-Glo viability, MIA PaCa-2 Parental", "experimental": "as §1"}}, "note": "“And” between values parts separate entries of the source, which are not always exact repeats. Identical values can stand only once."}
{"smiles": "Cc1cc(C)c(-c2[nH]c(C3COC3)nc2C)cc1C(=O)N1CC(c2ccc(C#N)cc2)C1", "note": "[Compound 5]", "values": [{"measurement": "3-Day IC50 Ratio + Compound 5", "setting": "[1]; + Compound 5 0.2 μM", "result": 1.46}, {"measurement": "7-Day IC50 Ratio + Compound 5", "setting": "[1]; + Compound 5 0.2 μM", "result": 1.29}, {"measurement": "3-Day IC50 Ratio + Compound 5", "setting": "[1]; + Compound 5 2.0 μM", "result": 5.57}, {"measurement": "7-Day IC50 Ratio + Compound 5", "setting": "[1]; + Compound 5 2.0 μM", "result": 3.98}, {"measurement": "shift of the BxPC-3 Nab-paclitaxel IC50 value", "setting": "[1]; BxPC-3 paclitaxel resistant (AbR), Compound 5, 3 and 7 days (Table 2)", "result": "4.0 fold and 5.6 fold"}, {"measurement": "3-Day IC50 Ratio + Compound 5", "setting": "[2]; + Compound 5 0.2 μM", "result": 0.92}, {"measurement": "7-Day IC50 Ratio + Compound 5", "setting": "[2]; + Compound 5 0.2 μM", "result": 0.61}, {"measurement": "3-Day IC50 Ratio + Compound 5", "setting": "[2]; + Compound 5 2.0 μM", "result": 0.63}, {"measurement": "7-Day IC50 Ratio + Compound 5", "setting": "[2]; + Compound 5 2.0 μM", "result": 0.63}, {"measurement": "3-Day IC50 Ratio + Compound 5", "setting": "[3]; + Compound 5 0.2 μM", "result": 1.46}, {"measurement": "7-Day IC50 Ratio + Compound 5", "setting": "[3]; + Compound 5 0.2 μM", "result": 1.04}, {"measurement": "3-Day IC50 Ratio + Compound 5", "setting": "[3]; + Compound 5 2.0 μM", "result": 2.73}, {"measurement": "7-Day IC50 Ratio + Compound 5", "setting": "[3]; + Compound 5 2.0 μM", "result": 3.37}, {"measurement": "shift of the MIA PaCa-2 Nab-paclitaxel IC50 value", "setting": "[3]; MIA PaCa-2 paclitaxel resistant (AbR), Compound 5, 3 and 7 days (Table 2)", "result": "2.7 fold and 3.4 fold"}, {"measurement": "3-Day IC50 Ratio + Compound 5", "setting": "[4]; + Compound 5 0.2 μM", "result": 1.18}, {"measurement": "7-Day IC50 Ratio + Compound 5", "setting": "[4]; + Compound 5 0.2 μM", "result": 1.09}, {"measurement": "3-Day IC50 Ratio + Compound 5", "setting": "[4]; + Compound 5 2.0 μM", "result": 1.59}, {"measurement": "7-Day IC50 Ratio + Compound 5", "setting": "[4]; + Compound 5 2.0 μM", "result": 1.88}]}
